Laboratory results taken from patent US20260028365A1 (BIOGEN MA INC., priority 2022, published 2026).
pIC50: −log10 of the molar value. Where two headings read alike, the source gives them in different places.

Key:
[1] = target: JH2 domain of human Tyk2 (Homo sapiens (Human), UniProt P29597); assay: JH2 Biochemical Assay (TR-FRET probe displacement); type: binding
[2] = target: Tyk2 (Homo sapiens (Human), UniProt P29597); assay: pSTAT4 Cell Assay (MSD, NK92 cells); type: cell-based
[3] = TR-FRET probe displacement, JH2 domain
[4] = TR-FRET probe displacement, JH2 domain of human Tyk2
[5] = JH2 domain of human Tyk2, TR-FRET probe displacement

JH2 domain of human Tyk2, sequence (P29597 575-876): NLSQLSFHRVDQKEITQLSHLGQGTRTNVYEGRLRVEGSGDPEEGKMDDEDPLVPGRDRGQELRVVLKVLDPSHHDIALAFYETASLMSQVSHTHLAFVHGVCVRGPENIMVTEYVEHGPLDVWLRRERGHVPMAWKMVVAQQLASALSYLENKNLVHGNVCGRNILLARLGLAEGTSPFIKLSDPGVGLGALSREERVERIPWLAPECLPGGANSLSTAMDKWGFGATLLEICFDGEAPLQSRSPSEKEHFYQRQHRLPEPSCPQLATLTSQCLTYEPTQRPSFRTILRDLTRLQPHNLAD
Tyk2, sequence (P29597 whole entry, the tested form may be a part): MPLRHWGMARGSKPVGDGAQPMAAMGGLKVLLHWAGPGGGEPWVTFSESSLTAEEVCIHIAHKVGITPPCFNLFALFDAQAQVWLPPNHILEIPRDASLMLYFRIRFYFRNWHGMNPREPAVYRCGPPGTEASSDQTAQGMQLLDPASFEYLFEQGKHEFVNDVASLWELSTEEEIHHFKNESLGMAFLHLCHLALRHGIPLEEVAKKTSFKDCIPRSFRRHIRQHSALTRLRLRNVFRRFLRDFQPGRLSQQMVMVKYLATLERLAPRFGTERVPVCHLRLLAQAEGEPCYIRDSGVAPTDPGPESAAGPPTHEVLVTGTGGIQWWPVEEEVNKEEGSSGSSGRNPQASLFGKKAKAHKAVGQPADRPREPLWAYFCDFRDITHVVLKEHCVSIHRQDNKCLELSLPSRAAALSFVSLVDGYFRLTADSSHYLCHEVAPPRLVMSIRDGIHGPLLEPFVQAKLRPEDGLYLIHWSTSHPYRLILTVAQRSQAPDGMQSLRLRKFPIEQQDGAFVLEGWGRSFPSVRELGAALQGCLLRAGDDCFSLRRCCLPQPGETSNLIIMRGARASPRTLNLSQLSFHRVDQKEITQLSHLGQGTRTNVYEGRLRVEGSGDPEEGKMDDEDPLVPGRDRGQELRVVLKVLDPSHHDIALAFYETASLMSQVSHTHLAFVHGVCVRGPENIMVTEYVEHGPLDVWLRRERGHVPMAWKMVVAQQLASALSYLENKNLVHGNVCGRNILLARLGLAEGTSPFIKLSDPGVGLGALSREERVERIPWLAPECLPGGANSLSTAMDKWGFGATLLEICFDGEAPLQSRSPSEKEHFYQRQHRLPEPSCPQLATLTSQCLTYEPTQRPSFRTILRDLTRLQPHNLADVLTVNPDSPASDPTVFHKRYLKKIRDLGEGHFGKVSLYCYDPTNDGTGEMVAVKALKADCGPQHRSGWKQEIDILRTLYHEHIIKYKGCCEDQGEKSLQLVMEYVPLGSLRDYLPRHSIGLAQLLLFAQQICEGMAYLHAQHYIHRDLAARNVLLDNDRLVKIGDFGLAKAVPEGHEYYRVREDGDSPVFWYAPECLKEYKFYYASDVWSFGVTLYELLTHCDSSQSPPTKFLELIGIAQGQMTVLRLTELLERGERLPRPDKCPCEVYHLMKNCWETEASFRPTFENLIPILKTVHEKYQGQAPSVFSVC

## CC(=O)Nc1cc(Nc2ccnc(C(C)(F)F)n2)c(-c2cnc(N3C[C@@H]4C[C@H]3CO4)cn2)cn1 [Example 870, N-(5-(5-((1S,4S)-2-oxa-5-azabicyclo[2.2.1]heptan-5-yl)pyrazin-2-yl)-4-((2-(1,1-difluoroethyl)pyrimidin-4-yl)amino)pyridin-2-yl)acetamide]
[1]; [3]
  pIC50: ≥ 8.00
[2]
  pIC50: 7.00 to 8.00

## COc1cncc(Oc2cnc(NC(C)=O)cc2Nc2cc(C)nc(C(C)(F)F)n2)n1 [Example 357, N-(4-((2-(1,1-difluoroethyl)-6-methylpyrimidin-4-yl)amino)-5-((6-methoxypyrazin-2-yl)oxy)pyridin-2-yl)acetamide]
[1]; [4]
  pIC50: 7.00 to 8.00
[2]; MSD
  pIC50: ≤ 6.00

## CC(=O)Nc1cc(Nc2cc(C)nc(C(C)(F)F)n2)c(-c2cnc(CN3CCOCC3)cn2)cn1 [Example 793, N-(4-((2-(1,1-difluoroethyl)-6-methylpyrimidin-4-yl)amino)-5-(5-(morpholinomethyl)pyrazin-2-yl)pyridin-2-yl)acetamide]
[1]; [3]
  pIC50: ≥ 8.00
[2]
  pIC50: ≥ 8.00

## CC(=O)Nc1cc(Nc2ccnc(C(C)(F)F)c2)c(-c2ncc(F)cn2)cn1 [Example 187, N-(4-((2-(1,1-difluoroethyl)pyridin-4-yl)amino)-5-(5-fluoropyrimidin-2-yl)pyridin-2-yl)acetamide]
[1]; [4]
  pIC50: 7.00 to 8.00
[2]; MSD
  pIC50: ≤ 6.00

## CCc1cc(Nc2cc(NC(=O)OC)ncc2OCCN(C)C)nc(C(C)(F)F)n1 [Example 92, methyl (4-((2-(1,1-difluoroethyl)-6-ethylpyrimidin-4-yl)amino)-5-(2-(dimethylamino)ethoxy)pyridin-2-yl)carbamate]
[1]; [4]
  pIC50: ≥ 8.00
[2]; MSD
  pIC50: 7.00 to 8.00

## CCOc1cnc(NC(=O)CC)cc1Nc1cc(C)nc(C(C)(F)F)n1 [Example 9, N-(4-((2-(1,1-difluoroethyl)-6-methylpyrimidin-4-yl)amino)-5-ethoxypyridin-2-yl)propionamide]
[1]; [4]
  pIC50: ≥ 8.00
[2]; MSD
  pIC50: 7.00 to 8.00

## CC(=O)Nc1cc(Nc2cncc(C(C)(C)F)c2)c(-c2ccc(C(C)(C)O)cn2)cn1 [Example 722, N-(4′-((5-(2-fluoropropan-2-yl)pyridin-3-yl)amino)-5-(2-hydroxypropan-2-yl)-[2,3′-bipyridin]-6′-yl)acetamide]
[1]; [5]
  pIC50: ≥ 8.00
[2]; MSD
  pIC50: ≥ 8.00

## CCOc1cnc(NC(C)=O)cc1Nc1cc(-c2cnn(CC(=O)O)c2)nc(C(C)(F)F)n1 [Example 305, 2-(4-(6-((2-acetamido-5-ethoxypyridin-4-yl)amino)-2-(1,1-difluoroethyl)pyrimidin-4-yl)-1H-pyrazol-1-yl)acetic acid]
[1]; [4]
  pIC50: ≥ 8.00
[2]; MSD
  pIC50: ≤ 6.00

## CC(=O)Nc1cc(Nc2cc(C)nc(C(C)(F)F)n2)c(C)cn1 [Example 41, N-(4-((2-(1,1-difluoroethyl)-6-methylpyrimidin-4-yl)amino)-5-methylpyridin-2-yl)acetamide]
[1]; [4]
  pIC50: 7.00 to 8.00
[2]; MSD
  pIC50: 6.00 to 7.00

## COc1ccc(-c2cnc(NC(C)=O)cc2Nc2cc(C)nc(C34COC(C3)C4)n2)nn1 [Example 749, N-(4-((2-(2-oxabicyclo[2.1.1]hexan-4-yl)-6-methylpyrimidin-4-yl)amino)-5-(6-methoxypyridazin-3-yl)pyridin-2-yl)acetamide]
[1]; [3]
  pIC50: ≥ 8.00
[2]
  pIC50: 7.00 to 8.00

## COc1cnc(NC(C)=O)cc1Nc1nc(C)cc(C(F)(F)F)n1 [Example 436, N-(5-methoxy-4-((4-methyl-6-(trifluoromethyl)pyrimidin-2-yl)amino)pyridin-2-yl)acetamide]
[1]; [5]
  pIC50: 6.00 to 7.00
[2]; MSD
  pIC50: ≤ 6.00

## CCc1cnc(NC(C)=O)cc1Nc1cc(C)nc(C(C)(F)F)n1 [Example 42, N-(4-((2-(1,1-difluoroethyl)-6-methylpyrimidin-4-yl)amino)-5-ethylpyridin-2-yl)acetamide]
[1]; [4]
  pIC50: 7.00 to 8.00
[2]; MSD
  pIC50: ≤ 6.00

## COCc1cnc(NC(C)=O)cc1Nc1ccc(-c2ccn(C)n2)c(OC)n1 [Example 48, N-(4-((6-methoxy-5-(1-methyl-1H-pyrazol-3-yl)pyridin-2-yl)amino)-5-(methoxymethyl)pyridin-2-yl)acetamide]
[1]; [4]
  pIC50: 6.00 to 7.00
[2]; MSD
  pIC50: ≤ 6.00

## CNC(=O)Nc1cc(Nc2cc(C)nc(C(C)(F)F)n2)c(-c2ccc(C#N)cn2)cn1 [Example 520, 1-(5-cyano-4′-((2-(1,1-difluoroethyl)-6-methylpyrimidin-4-yl)amino)-[2,3′-bipyridin]-6′-yl)-3-methylurea]
[1]; [5]
  pIC50: ≥ 8.00
[2]; MSD
  pIC50: ≥ 8.00

## CC(=O)Nc1cc(Nc2cc(C)nc(C34CCC(C3)OC4)n2)c(-c2ccn(C)n2)cn1 (stereo not shown) [Example 557, N-(4-((2-(2-oxabicyclo[2.2.1]heptan-4-yl)-6-methylpyrimidin-4-yl)amino)-5-(1-methyl-1H-pyrazol-3-yl)pyridin-2-yl)acetamide]
[1]; [5]
  pIC50: ≥ 8.00
[2]; MSD
  pIC50: 7.00 to 8.00

## COC1(C)CN(c2ccc(-c3cnc(NC(C)=O)cc3Nc3ccnc(C(C)(F)F)n3)nn2)C1 [Example 874, N-(4-((2-(1,1-difluoroethyl)pyrimidin-4-yl)amino)-5-(6-(3-methoxy-3-methylazetidin-1-yl)pyridazin-3-yl)pyridin-2-yl)acetamide]
[1]; [3]
  pIC50: ≥ 8.00
[2]
  pIC50: ≥ 8.00

## COCc1cc(-c2cnc(NC(C)=O)cc2Nc2cc(C)nc(C(C)(F)F)n2)ncn1 [Example 665, N-(4-((2-(1,1-difluoroethyl)-6-methylpyrimidin-4-yl)amino)-5-(6-(methoxymethyl)pyrimidin-4-yl)pyridin-2-yl)acetamide]
[1]; [5]
  pIC50: ≥ 8.00
[2]; MSD
  pIC50: 7.00 to 8.00

## CC(=O)Nc1cc(Nc2cc(C)nc(C(C)(F)F)n2)c(-c2cccc(CN3CCOCC3)n2)cn1 [Example 650, N-(4′-((2-(1,1-difluoroethyl)-6-methylpyrimidin-4-yl)amino)-6-(morpholinomethyl)-[2,3′-bipyridin]-6′-yl)acetamide]
[1]; [5]
  pIC50: ≥ 8.00
[2]; MSD
  pIC50: ≥ 8.00

## CC(=O)Nc1cc(Nc2cc(C)nc(C(C)(F)F)n2)c(OCc2cnn(C3CCC3)c2)cn1 [Example 354, N-(5-((1-cyclobutyl-1H-pyrazol-4-yl)methoxy)-4-((2-(1,1-difluoroethyl)-6-methylpyrimidin-4-yl)amino)pyridin-2-yl)acetamide]
[1]; [4]
  pIC50: ≥ 8.00
[2]; MSD
  pIC50: 6.00 to 7.00

## CC(=O)Nc1cc(Nc2cc(C)nc(C(C)(F)F)n2)c(-c2cc(C)ncn2)cn1 [Example 197, N-(4-((2-(1,1-difluoroethyl)-6-methylpyrimidin-4-yl)amino)-5-(6-methylpyrimidin-4-yl)pyridin-2-yl)acetamide]
[1]; [4]
  pIC50: ≥ 8.00
[2]; MSD
  pIC50: ≥ 8.00

## CC(=O)Nc1cc(Nc2cc(C(C)C)nc(C(C)(F)F)n2)c(-c2ccc3c(n2)OCC(C)(C)O3)cn1 [Example 822, N-(4-((2-(1,1-difluoroethyl)-6-isopropylpyrimidin-4-yl)amino)-5-(2,2-dimethyl-2,3-dihydro-[1,4]dioxino[2,3-b]pyridin-6-yl)pyridin-2-yl)acetamide]
[1]; [3]
  pIC50: ≥ 8.00
[2]
  pIC50: ≥ 8.00

## CC(=O)Nc1cc(Nc2cc(C)nc(C(C)(F)F)n2)c(-c2ccn3ncnc3n2)cn1 [Example 536, N-(5-([1,2,4]triazolo[1,5-a]pyrimidin-5-yl)-4-((2-(1,1-difluoroethyl)-6-methylpyrimidin-4-yl)amino)pyridin-2-yl)acetamide]
[1]; [5]
  pIC50: ≥ 8.00
[2]; MSD
  pIC50: ≥ 8.00

## CC(=O)Nc1cc(Nc2cc(C)nc(C(C)(F)F)n2)c(-c2nccs2)cn1 [Example 605, N-(4-((2-(1,1-difluoroethyl)-6-methylpyrimidin-4-yl)amino)-5-(thiazol-2-yl)pyridin-2-yl)acetamide]
[1]; [5]
  pIC50: ≥ 8.00
[2]; MSD
  pIC50: 7.00 to 8.00
